Source: publication PMC4775224 (2015)

Test system: TPP riboswitch aptamer (wtAtRs1 + wtAtRs2 + wtAtRs3, splint-ligated) (RNA, riboswitch, amino-modified U (5-N-U) at 59 (U replaces G88 in paper numbering); amino-modified U (5-LC-N-U) at 123 (U25 in paper numbering)) AUCGAGAGGGACACGGGGAAACACCACCAUAUAUGCACCAGGGGUGCUUGAACCAGGAUAGCCUGCGAAAAGGCGGGCUAUCCGGGACCAGGCUGAGAAAGUCCCUUUGAACCUGAACAGGGUAAUGCCUGCGCAGGGAGUGUGCUAACAAGGUCACCAUCAUCCUGACUAGAGUCCUUGG
Assay: optical-trap force spectroscopy with smFRET
Settings: 130 mM KCl, 4 mM Mg2+, 50 mM HEPES pH 7.5, 1 mM EDTA, oxygen scavengers

## Cc1ncc(C[n+]2csc(CCO)c2C)c(N)n1
2 mM thiamine (saturating), arms not docked
  binding: yes

## Cc1ncc(C[n+]2csc(CCOP(=O)(O)O)c2C)c(N)n1
2 mM TMP (saturating), arms not docked
  binding: yes

## Cc1ncc(C[n+]2csc(CCOP(=O)(O)OP(=O)(O)O)c2C)c(N)n1
5 µM, 50 µM and 2 mM TPP, weak then strong state
  binding: yes
